Experimental data published in EP0932613B1, “BLOCKING EXPRESSION OF VIRULENCE FACTORS IN S. AUREUS” (NEW YORK UNIVERSITY, priority 1996, dated 2005).
Where a SMILES comes first, the peptide text is derived from it. Bridges are numbered along the chain shown (N, C = ends).

Tests used:
[1] = test system: RNAIII transcription; assay: Effect of S. lugdunensis pheromone on RNAIII transcription of various S. aureus strains (Northern blot); type: cell-based; conditions: 37°C for 30 minutes; strains grown to 60 Klett units for inhibition assays; Figures 4A and 4B
Protocol: The purified S. lugdunensis pheromone was then analyzed for its ability activate and inhibit RNAIII transcription of various S. aureus strains. S. aureus strains were grown to 30 Klett units (for activation assays) and to 60 Klett units (for inhibition assays). The purified S . lugdunensis pheromone was added and the mixtures were incubated at 37°C for 30 minutes. Whole cell lysates were prepared from these cultures and analyzed by Northern blot hybridization using a RN6390B RNAIII-specific probe.

[2] = test system: RNAIII transcription; assay: RNAIII transcription activation/inhibition assay (Ji et al. 1995), strain RN8463; type: cell-based; conditions: purified peptide; S. aureus strain RN8463; Figure 3
Protocol: (§1) The purified activator peptide was then analyzed for its ability activate and inhibit RNAIII transcription of S. aureus strains RN6390B, RN6607 and RN8463, as described in Ji, G., et al. PNAS USA 92:12055-12059 (1995).
(§2) The purified peptide were then analyzed for their ability activate and inhibit RNAIII transcription of S. aureus strains RN6390B, RN6607 and RN8463, as described in Ji, G., et al. PNAS USA 92:12055-12059 (1995).

[3] = test system: RNAIII transcription; assay: RNAIII transcription activation/inhibition assay (Ji et al. 1995), strain RN6390B; type: cell-based; conditions: purified peptide; S. aureus strain RN6390B; Figure 3
Protocol: as §1, §2

[4] = test system: RNAIII transcription; assay: RNAIII transcription activation/inhibition assay (Ji et al. 1995), strain RN6607; type: cell-based; conditions: purified peptide; S. aureus strain RN6607; Figure 3
Protocol: as §1, §2

[5] = test system: agr locus; conditions: PNAS 92:12055-12059 (1995); cited from earlier work

CC[C@H](C)[C@H](NC(=O)[C@@H](N)CC(=O)O)C(=O)N[C@H]1CSC(=O)[C@H](Cc2ccccc2)NC(=O)[C@H](Cc2ccc(O)cc2)NC(=O)[C@H](C)NC(=O)[C@H](CC(N)=O)NC1=O [S. lugdunensis pheromone, Asp-Ile-Cys-Asn-Ala-Tyr-Phe] (H-DICNAYF; thioester 3-C)
S. aureus strains tested in which the agr response is inhibited [1]: 5 of 6

CC[C@H](C)[C@@H]1NC(=O)[C@H](Cc2ccccc2)NC(=O)[C@H](CC(=O)O)NC(=O)[C@@H](NC(=O)[C@@H](NC(=O)[C@H](CO)NC(=O)[C@@H](N)Cc2ccc(O)cc2)[C@@H](C)O)CSC(=O)[C@H](CCSC)NC1=O [activator peptide, Tyr-Ser-Thr-Cys-Asp-Phe-Ile-Met] (H-YSTCDFIM; thioester 4-C)
effect on RNAIII transcription [2]: inhibitor effect
effect on RNAIII transcription [3]: activator effect
effect on RNAIII transcription [4]: inhibitor effect
expression of the agr locus [5]: activate

CC(C)C[C@@H]1NC(=O)[C@H](CO)NC(=O)[C@H](CO)NC(=O)[C@@H](NC(=O)[C@H](C)NC(=O)[C@H](CC(N)=O)NC(=O)[C@@H](NC(=O)CN)C(C)C)CSC(=O)[C@H](Cc2ccccc2)NC1=O [peptide from RN6607, Gly-Val-Asn-Ala-Cys-Ser-Ser-Leu-Phe] (H-GVNACSSLF; thioester 5-C)
effect on RNAIII transcription [2]: inhibitor effect
effect on RNAIII transcription [3]: inhibitor effect
effect on RNAIII transcription [4]: activator effect

CC[C@H](C)[C@H](NC(=O)[C@@H](N)Cc1ccc(O)cc1)C(=O)N[C@@H](CC(N)=O)C(=O)N[C@H]1CSC(=O)[C@H](CC(C)C)NC(=O)[C@H](CC(C)C)NC(=O)[C@H](Cc2ccccc2)NC(=O)[C@H](CC(=O)O)NC1=O [peptide from RN8463, Tyr-Ile-Asn-Cys-Asp-Phe-Leu-Leu] (H-YINCDFLL; thioester 4-C)
effect on RNAIII transcription [2]: activator effect
effect on RNAIII transcription [3]: inhibitor effect
effect on RNAIII transcription [4]: inhibitor effect
